Test [1] concerns Paracoccus carotinifaciens strain E-396 (FERM BP-4283). The test can be described thus: Amino acid supplementation (20 amino acids), test tube culture, carotenoid by HPLC and growth by OD610. Type of test: cell-based. As to conditions: amino acid at 1.0 g/L. As for the experimental part:
(§1) In the examples, carotenoids were quantified by high performance liquid chromatography (HPLC) as follows.
(§2) Two columns of Wakosil-II 5 SIL-100 (φ4.6×250 mm) (Wako Pure Chemical Industries, Ltd., Japan) were connected to each other for use as a column. Elution was performed by flowing an n-hexane-tetrahydrofuran-methanol mixed solution (40:20:1), which was a mobile phase, at a flow rate of 1.0 mL/minute at a constant temperature around room temperature. The measurement was performed as follows. Samples were each dissolved in tetrahydrofuran and then diluted 100-fold with the mobile phase. Each dilution was injected in a volume of 20 μL. The column eluate was detected at a wavelength of 470 nm. As a reference for quantification, astaxanthin (SIGMA, Cat. No. A9335) was used. The astaxanthin concentration of the reference solution was determined using the following equation after measuring the absorbance (A) of the reference solution at 477 nm and the area percentage % (B) of the astaxanthin peak at the time of HPLC analysis under the above conditions. Astaxanthin concentration (mg/L)=A/2150×B×100
A medium of the following composition (sucrose 30 g/L, corn steep liquor 30 g/L, potassium dihydrogenphosphate 1.5 g/L, disodium hydrogenphosphate 12-hydrate 3.8 g/L, calcium chloride dihydrate 5.0 g/L, magnesium sulfate 7-hydrate 0.7 g/L, iron sulfate 7-hydrate 0.3 g/L, pH 7.2) was dispensed in 8 ml volumes into cotton-plugged test tubes having an inner diameter of 18 mm and sterilized in an autoclave at 121° C. for 15 minutes to prepare a test tube medium for seed culture.
(§3) Next, a medium of the following composition (glucose 30 g/L, filtered corn steep liquor 5 g/L, ammonium sulfate 1.5 g/L, potassium dihydrogenphosphate 1.5 g/L, disodium hydrogenphosphate 12-hydrate 3.8 g/L, calcium chloride dihydrate 5.0 g/L, magnesium sulfate 7-hydrate 0.7 g/L, iron sulfate 7-hydrate 0.6 g/L, ester-based defoaming agent 0.2 g/L) was dispensed in 8 ml volumes into cotton-plugged test tubes having an inner diameter of 18 mm (21 tubes in total).
The mediums in these test tubes were supplemented with 20 amino acids, glycine, alanine, valine, leucine, isoleucine, serine, threonine, aspartic acid, glutamic acid, asparagine, glutamine, lysine, arginine, cysteine, methionine, phenylalanine, tyrosine, tryptophan, histidine and proline, respectively, at 1.0 g/L. One of the tubes was supplemented with no amino acid as a control. Finally, the mediums in the tubes were adjusted to pH 7.1 with aqueous sodium hydroxide or aqueous sulfuric acid and then sterilized in an autoclave at 121° C. for 20 minutes.
Paracoccus carotinifaciens strain E-396 (FERM BP-4283) was inoculated into the test tube medium for seed culture and then cultured with shaking at 28° C. for 2 days at 300 spm. The resulting culture solution was then inoculated in 0.1 ml volumes into the 21 test tube media, respectively, and cultured with shaking at 28° C. for 4 days at 300 spm.
Each culture solution was measured for its carotenoid concentration by HPLC and microbial cell growth was determined by OD610 (absorbance at 610 nm).

Test [2] concerns Paracoccus sp. strain L-25. The test can be described thus: Glutamate supplementation, test tube culture, lycopene-producing mutant, carotenoid by HPLC. The test is classed as cell-based. As for the experimental part:
as §1, §2
The strain E-396 (FERM BP-4283) was mutated with N-methyl-N′-nitro-N-nitrosoguanidine to select mutant strain colonies with red-purple color. Carotenoid compounds in their culture solutions were further analyzed by high performance liquid chromatography to select a strain L-25 specifically producing lycopene.
A medium of the following composition (sucrose 30 g/L, corn steep liquor 30 g/L, potassium dihydrogenphosphate 1.5 g/L, disodium hydrogenphosphate 12-hydrate 3.8 g/L, calcium chloride dihydrate 5.0 g/L, magnesium sulfate -hydrate 0.7 g/L, iron sulfate 7-hydrate 0.3 g/L, pH 7.2) was dispensed in 8 ml volumes into cotton-plugged test tubes having an inner diameter of 18 mm and sterilized in an autoclave at 121° C. for 15 minutes to prepare a test tube medium for seed culture.
as §3, with “(2” for “(21”, “total). One of the test tubes was supplemented with monosodium L-glutamate monohydrate to 30 mmol/L, while the other was supplemented with nothing as a control. Finally, the mediums in the tubes were adjusted to pH 7.1 with aqueous ammonia and then sterilized in an autoclave at 121° C. for 20 minutes.” for “total).”
The Paracoccus sp. strain L-25 selected above was inoculated, into the test tube medium for seed culture and then cultured with shaking at 28° C. for 2 days at 300 spin. The resulting culture solution was then inoculated in 0.1 ml volumes into the two test tube mediums and cultured with shaking at 28° C. for 3 days at 300 spm. Each culture solution was measured for its carotenoid concentration by HPLC.

Where [3] appears, read: culture solution, 28° C. for 4 days.
Setting [4] is: Glutamic acid concentration 30 mmol/L, 28° C. for 3 days.

With `N[C@@H](CCC(=O)O)C(=O)O` [Glutamic acid, glutamic acid], in test [1] (versus tube with no amino acid), the “effect on the production of carotenoid pigments” value is given as “stimulatory effect”. In test [1] (setting [3]), this compound came in with an Astaxanthin of 10.7 mg/L and a Total carotenoid of 28.2 mg/L. The OD610 in test [1] (microbial cell growth, absorbance at 610 nm, 28° C. for 4 days) came out at 17. Moreover, the “produced carotenoid concentration compared to the sample without glutamic acid” value in test [2] (30 mmol/L) was “higher produced carotenoid concentration”. In test [2] (setting [4]), the Adonixanthin came to 0.3 mg/L, the Astaxanthin is recorded as 0.3 mg/L, the Lycopene worked out at 19.6 mg/L and the “Total carotenoid” value is recorded as 20.2 mg/L.

These data come from US8993282B2, “Carotenoid fermentation method” (JX Nippon Oil & Energy Corporation, priority 2008, dated 2015).
